The record followed here is patent US20230270764A1, “COMPOSITION COMPRISING CANNABINOIDS, TERPENES, AND FLAVONOIDS FOR TREATING DEPRESSION” (priority 2020, published 2023).

This assay deals with LPS-injected mice. Description: Sucrose preference test in the LPS-induced model of depression. It is filed as in vivo. The following applies: Example 9; male C57BL/6, i.p. 1 h before LPS 330 µg/kg; mg/kg: CBD 30; CBDA 1 or 5; BCP 50; kaempferol 30; CBD 30 plus THC 10; CBD 30 plus kaempferol 30. The text has this:
In a preliminary screening experiment, subjects were 4-6 months-old male C57BL/6 (Jackson Laboratories, USA). Animals were housed 2-3/cage, kept in an air-conditioned room (23+°C) and given ad libitum access to food and water. The mice were kept in a reversed light/dark cycle, with lights off from 7 a.m. to 7 p.m. All experiments were approved by the Hebrew University of Jerusalem Ethics Committee on Animal Care and Use. In preparation for the Sucrose Preference Test, mice were habituated 2-3 times to sucrose drinking, by exposing them overnight to two graduated tubes, one containing water and the other containing sucrose solution (1%, w/v). Water and sucrose consumption were measured, and sucrose preference was computed by dividing the amount of sucrose consumed by drinking (ml sucrose) by the total drinking volume (ml of sucrose + water). One day later, the weight of the mice and the food in their cages was weighed for later analysis of food consumption and body weight changes. Groups of mice were injected intraperitoneally (i.p.) with either vehicle (cremophor, ethanol and PBS, 1:1:18 (v/v/v)) or a cannabinoid-based formulation (by itself or with another cannabinoid, or a terpene or a flavonoid). One hour later, each of these groups was injected with LPS (330 µg/kg). All injections were administered at a dose of 10 ml/kg. Four hours following the LPS injection, mice were tested in the Open-Field Test. In this test, the measured locomotor activity reflects not only motor capacity, but particularly the innate motivation for spatial exploration (which increases the distance travelled) and the anxiety level (which reduces the distance travelled, in general, and particularly the distance and time spent in the center of the open field). Each subject was placed near one of the walls of a white 50 X 50 cm^2 arena with 40 cm high walls. The distance travelled (cm), the velocity of the movement (cm/second), the time spent (seconds), distance travelled (cm) in the center area of the arena, as well as the number of entries from the perimeter area into the center of the arena were automatically measured over a 4-minute period, using EthoVision XT video tracking system and software (Noldus, The Netherlands). Twenty-four hours after the LPS injection, mice were tested in the Social Exploration Test. […] Social exploration, defined as the time of near contact between the nose of the subject and the juvenile in the small cage was recorded for 4 min, using computerized in-house software. Sucrose preference was assessed, as described above, between 8 to 27 hr post LPS injection. Body weight and weight of the food were measured two hours before the LPS injection, and again after 24 hours, and the change in body weight and food consumption were calculated. […]

As to `C=C1CC/C=C(\C)CC[C@@H]2[C@@H]1CC2(C)C` [β-caryophyllene], the “sucrose preference compared with vehicle-treated groups” value is given as “significantly increased sucrose preference”.
